In general, Kb refers to the equilibrium dissociation constant of an antagonist, usually derived from a functional assay. As usually defined, the Ki is a measure of affinity in units of concentration, obtained from inhibition or displacement. A high value points to a looser hold on the target.

Some results are limits rather than exact numbers.

This note sets out measurements from US8088800B2, “4-(5-aminomethyl)-indole-1-ylmethyl)-benzamide derivatives and related compounds as opioid receptor antagonists for the treatment of obesity” (Eli Lilly and Company, priority 2004, dated 2012).

The target in assay [1] is T1, cloned human delta opioid receptor (Homo sapiens, UniProt P41143).
T1 construct: expressed in transfected cells
The assay can be described thus: GTP-γ-S binding assay, antagonist potency (Kb), delta. In kind it is biochemical. As to conditions: functional antagonist potency vs DPDPE 30 nM; Cheng-Prusoff. The protocol: (§1) The functional antagonist potency (Kb) of the sample compounds was determined using the GTPγS binding assay. GTPgS-based functional assays provide an in vitro measure of the activity of opioid agonists and antagonists. Opioid reference compounds or test compound are incubated with membrane homogenate from cells expressing the cloned human mu, kappa or delta opioid receptor and radiolabeled [35S]GTPgS. If the compound activates the opioid receptor, an increase in the binding of radiolabeled GTPgS is observed. […] These tests provide an in vitro measurement of the activity of the compound at human opioid receptors.
(§2) An SPA-based GTP-γ-S assay format was developed based on previous opioid (Emmerson et al., J. Pharm Exp Ther 278,1121,1996; Horng et al., Society for Neuroscience Abstracts, 434.6, 2000) and muscarinic (DeLapp et al., JPET 289, 946, 1999) assay formats. Membranes were resuspended in 20 mM HEPES, 100 mM NaCl, 5 mM MgCl2, 1 mM DTT, and 1 mM EDTA. Fifty (50) […] of GTP-γ-[35S], compound, membrane suspension (20 microgram/well), and wheat germ agglutinin coated SPA beads (1 mg/well) were added to clear bottom 96 well assay plates. GDP ([…]) was added to the membrane solution prior to addition to the assay plates. Plates were sealed and incubated for four hours at room temperature then placed in a refrigerator overnight to allow the beads to settle. Signal stability at 4° C. was determined to be >60 hours. Plates were warmed to room temperature and counted in a Wallac Microbeta scintillation counter. For antagonist assays, specific agonists were added at the following concentrations: (MOR) DAMGO 1 micromolar, (DOR) DPDPE 30 nM, (KOR) U69593 300 nM. Kb's were determined by Cheng-Prusoff equation (see Cheng and Prusoff, Biochem. Pharmacol. 22, 3099, 1973).
(GTPγS is a poorly hydrolysed GTP analogue; its binding reports G protein activation.)

Assay [2] deals with T2, cloned human mu opioid receptor (Homo sapiens, UniProt P35372).
T2 construct: expressed in transfected cells
The assay can be described thus: GTP-γ-S binding assay, antagonist potency (Kb), mu. In kind it is biochemical. As to conditions: functional antagonist potency vs DAMGO 1 micromolar; Cheng-Prusoff. On the procedure: as §1, §2

The next assay deals with kappa opioid receptor (Homo sapiens, UniProt P41145). The assay can be described thus: opioid receptor binding assay (Ki), kappa.
Another assay deals with delta opioid receptor (Homo sapiens, UniProt P41143). In words: opioid receptor binding assay (Ki), delta.
A further assay concerns the target mu opioid receptor (Homo sapiens, UniProt P35372). In words: opioid receptor binding assay (Ki), mu.
Assay [3] addresses T3, cloned human kappa opioid receptor (Homo sapiens, UniProt P41145).
T3 construct: expressed in transfected cells
In words: GTP-γ-S binding assay, antagonist potency (Kb), kappa. In kind it is biochemical. As to conditions: functional antagonist potency vs U69593 300 nM; Cheng-Prusoff. On the procedure:
as §1, §2

Sequence of kappa opioid receptor (P41145 whole entry): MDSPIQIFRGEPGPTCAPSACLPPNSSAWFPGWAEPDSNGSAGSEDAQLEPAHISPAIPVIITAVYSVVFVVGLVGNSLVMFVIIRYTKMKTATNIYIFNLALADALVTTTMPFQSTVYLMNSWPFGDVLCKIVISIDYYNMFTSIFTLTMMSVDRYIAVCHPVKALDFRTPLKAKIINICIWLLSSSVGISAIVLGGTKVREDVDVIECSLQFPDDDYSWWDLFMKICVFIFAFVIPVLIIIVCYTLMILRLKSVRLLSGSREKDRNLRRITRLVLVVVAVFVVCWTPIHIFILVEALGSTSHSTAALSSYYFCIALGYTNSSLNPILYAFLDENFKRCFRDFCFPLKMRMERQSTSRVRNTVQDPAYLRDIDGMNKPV
T3 sequence (P41145 whole entry): as above
Sequence of delta opioid receptor (P41143 whole entry): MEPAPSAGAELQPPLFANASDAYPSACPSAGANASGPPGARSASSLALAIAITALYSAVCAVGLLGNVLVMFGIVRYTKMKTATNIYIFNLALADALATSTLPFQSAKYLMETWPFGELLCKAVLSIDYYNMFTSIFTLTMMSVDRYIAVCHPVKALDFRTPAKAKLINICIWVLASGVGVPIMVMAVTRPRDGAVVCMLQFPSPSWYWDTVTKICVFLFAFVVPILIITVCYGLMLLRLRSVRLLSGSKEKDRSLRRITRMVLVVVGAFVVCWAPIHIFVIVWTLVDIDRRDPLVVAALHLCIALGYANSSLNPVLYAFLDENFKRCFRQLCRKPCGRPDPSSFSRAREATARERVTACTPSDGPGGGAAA
T1 sequence (P41143 whole entry): as above
Sequence of mu opioid receptor (P35372 whole entry): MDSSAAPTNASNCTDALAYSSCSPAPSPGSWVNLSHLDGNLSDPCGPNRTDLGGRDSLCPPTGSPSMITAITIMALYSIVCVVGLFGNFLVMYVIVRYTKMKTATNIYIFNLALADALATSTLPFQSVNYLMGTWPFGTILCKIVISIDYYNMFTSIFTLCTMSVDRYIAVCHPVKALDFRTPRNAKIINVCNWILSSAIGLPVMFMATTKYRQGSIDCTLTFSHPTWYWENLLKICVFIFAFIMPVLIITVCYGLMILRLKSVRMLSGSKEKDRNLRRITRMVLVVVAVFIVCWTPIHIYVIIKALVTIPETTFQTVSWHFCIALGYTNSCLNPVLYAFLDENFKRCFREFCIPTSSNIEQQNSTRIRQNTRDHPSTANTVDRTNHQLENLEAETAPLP
T2 sequence (P35372 whole entry): as above

In the case of `NC(=O)c1ccc(Cn2ccc3cc(CNCCc4cccs4)ccc32)cc1` [Example 2, 4-{5-[(2-Thiophen-2-yl-ethylamino)-methyl]-indol-1-ylmethyl}-benzamide], the Kb in assay [1] came out at 15 nM; in assay [2], 2 nM; in assay [3], 50.1 nM. The Ki at kappa opioid receptor came to 411 nM; at delta opioid receptor it was 154 nM; on mu opioid receptor, 21.3 nM.
As to `COc1ccc(CCNCc2ccc3c(ccn3Cc3ccc(C(N)=O)cc3)c2)cc1` [Example 11, 4-(5-{[2-(4-Methoxy-phenyl)-ethylamino]-methyl}-indol-1-ylmethyl)-benzamide], the Kb is greater than 50 nM in assay [1], 8.4 nM in assay [2] and greater than 42 nM in assay [3]. For the same compound, the Ki on kappa opioid receptor was 1110 nM; at delta opioid receptor, 2550 nM; on mu opioid receptor, 319 nM.
For `NC(=O)c1ccc(Cn2ccc3cc(CNCCc4ccccc4F)ccc32)cc1` [Example 9, 4-(5-{[2-(2-Fluoro-phenyl)-ethylamino]-methyl}-indol-1-ylmethyl)-benzamide], the figures for the antagonist dissociation constant (Kb) in assay [1], in assay [2] and in assay [3] were 20.7 nM, 6.2 nM and greater than 35 nM, respectively. The figures for the Ki on kappa opioid receptor, at delta opioid receptor and on mu opioid receptor were 332 nM, 144 nM and 20.8 nM, respectively.
`NC(=O)c1ccc(CN2CCc3cc(CNCCc4cccs4)ccc32)cc1` [Example 4, 4-{5-[(2-Thiophen-2-yl-ethylamino)-methyl]-2,3-dihydro-indol-1-ylmethyl}-benzamide]: the values for the antagonist equilibrium constant (Kb) in assay [1], in assay [2] and in assay [3] were 19.2 nM, 2.1 nM and greater than 42 nM, respectively. For the same compound, the results for the Ki at kappa opioid receptor, on delta opioid receptor and on mu opioid receptor were 226 nM, 111 nM and 13.4 nM, respectively.
Take `NC(=O)c1ccc(Cn2ccc3cc(CNCCCc4ccccc4)ccc32)cc1` [Example 8, 4-{5-[(3-Phenyl-propylamino)-methyl]-indol-1-ylmethyl}-benzamide]: the inhibitory constant (Ki) at kappa opioid receptor came to 304 nM; at delta opioid receptor it was 633 nM; on mu opioid receptor, 59.3 nM.
In the same order, the values of `NC(=O)c1ccc(Cn2ccc3cc(CNCCO)ccc32)cc1` [Example 10, 4-{5-[(2-Hydroxy-ethylamino)-methyl]-indol-1-ylmethyl}-benzamide] are 3190 nM, greater than 5000 nM and 478 nM.
With `CC(C)(C)CCNCc1ccc2c(ccn2Cc2ccc(C(N)=O)cc2)c1` [Example 3, 4-{5-[(3,3-Dimethyl-butylamino)-methyl]-indol-1-ylmethyl}-benzamide], the Kb worked out at 19.2 nM in assay [1], 4.4 nM in assay [2] and 50.5 nM in assay [3]. For the same compound, the Ki at kappa opioid receptor was 106 nM; at delta opioid receptor, 98.2 nM; on mu opioid receptor it was 15.6 nM.
For the compound `CC(C)CCNCc1ccc2c(c1)CCN2Cc1ccc(C(N)=O)cc1` [Example 5, 4-{5-[(3-Methyl-butylamino)-methyl]-2,3-dihydro-indol-1-ylmethyl}-benzamide], the antagonist dissociation constant (Kb) in assay [1] was 24.3 nM; in assay [2] it was 3.3 nM; in assay [3], greater than 42 nM. The Ki at kappa opioid receptor was 387 nM; on delta opioid receptor, 259 nM; at mu opioid receptor, 24.5 nM.
With `CCCCCCNCc1ccc2c(ccn2Cc2ccc(C(N)=O)cc2)c1` [Example 7, 4-(5-Hexylaminomethyl-indol-1-ylmethyl)-benzamide], the results for the Kb in assay [1], in assay [2] and in assay [3] were 27.4 nM, 5.8 nM and greater than 35 nM, respectively. In addition, the inhibition constant Ki came out at 345 nM on kappa opioid receptor, 176 nM at delta opioid receptor and 22.1 nM at mu opioid receptor.
As for `CC(C)(C)CCNCc1ccc2c(c1)CCN2Cc1ccc(C(N)=O)cc1` [Example 6, 4-{5-[(3,3-Dimethyl-butylamino)-methyl]-2,3-dihydro-indol-1-ylmethyl}-benzamide], the Kb was determined as 20.3 nM in assay [1], 4 nM in assay [2] and 21.4 nM in assay [3]. Also, the inhibitory constant (Ki) on kappa opioid receptor was 340 nM; at delta opioid receptor, 193 nM; on mu opioid receptor, 20.5 nM.
On to `CC(C)CCNCc1ccc2c(ccn2Cc2ccc(C(N)=O)cc2)c1` [Example 1, 4-{5-[(3-Methyl-butylamino)-methyl]-indol-1-ylmethyl}-benzamide], for which the Kb amounted to 21.7 nM in assay [1], 4.2 nM in assay [2] and 59.9 nM in assay [3]. Besides, the Ki amounted to 362 nM at kappa opioid receptor, 170 nM on delta opioid receptor and 18.1 nM at mu opioid receptor.
